The values below come from patent US20260184708A1, “PYRIDAZINONES AND METHODS OF USE THEREOF” (GFB (ABC), LLC, priority 2017, published 2026).

Structures are written as SMILES.

The first assay addresses T1, TRPC4 (Homo sapiens, UniProt Q9UBN4).
T1 construct: expressed in transfected cells; host or cells: HEK-TREx (HekTrex-293), cell line ICLN-1694, tetracycline-induced
T1 sequence (Q9UBN4 1-982 isoform Q9UBN4-5): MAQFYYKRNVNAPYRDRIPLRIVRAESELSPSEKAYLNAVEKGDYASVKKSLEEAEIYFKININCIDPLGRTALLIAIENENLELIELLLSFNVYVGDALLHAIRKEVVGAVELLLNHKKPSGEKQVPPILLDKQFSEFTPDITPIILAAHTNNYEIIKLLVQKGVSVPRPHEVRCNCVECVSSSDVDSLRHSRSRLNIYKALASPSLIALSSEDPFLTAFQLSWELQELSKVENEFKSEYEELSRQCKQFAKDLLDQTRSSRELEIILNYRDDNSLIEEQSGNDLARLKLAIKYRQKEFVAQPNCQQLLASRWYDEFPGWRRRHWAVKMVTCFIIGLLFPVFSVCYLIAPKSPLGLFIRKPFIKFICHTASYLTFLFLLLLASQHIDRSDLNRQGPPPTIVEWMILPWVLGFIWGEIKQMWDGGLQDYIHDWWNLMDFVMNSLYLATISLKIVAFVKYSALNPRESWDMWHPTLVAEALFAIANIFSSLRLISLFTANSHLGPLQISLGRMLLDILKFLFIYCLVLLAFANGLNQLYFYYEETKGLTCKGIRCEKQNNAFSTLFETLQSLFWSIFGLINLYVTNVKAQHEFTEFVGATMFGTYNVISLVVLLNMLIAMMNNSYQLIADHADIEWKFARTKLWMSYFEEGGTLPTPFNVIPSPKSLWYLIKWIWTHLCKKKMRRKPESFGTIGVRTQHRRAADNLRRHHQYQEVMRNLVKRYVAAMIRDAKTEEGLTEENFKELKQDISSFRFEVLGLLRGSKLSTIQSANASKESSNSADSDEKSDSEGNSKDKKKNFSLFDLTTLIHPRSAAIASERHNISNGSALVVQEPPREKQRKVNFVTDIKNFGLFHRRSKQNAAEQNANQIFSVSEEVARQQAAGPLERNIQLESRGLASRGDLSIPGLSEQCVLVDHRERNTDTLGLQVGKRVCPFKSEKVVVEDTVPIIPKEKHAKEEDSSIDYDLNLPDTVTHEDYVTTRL
Briefly: TRPC4 FLIPR Assay (HEK-TREx hTRPC4, Englerin A stimulation). Format: cell-based. Particulars: Table 8; HEK-TREx hTRPC4; read-out: TRPC4 FLIPR IC50. The method, then:
FLIPR Assay Buffer (Earls Balanced Salt Solution (EBSS)) was prepared as follows:
(§1) 10-point dose response curves were generated using the Echo-550 acoustic dispenser. Compound source plates were made by serially diluting compound stocks to create 10 mM, 1 mM, and 0.1 mM solutions in DMSO into Echo certified LDV plates. The Echo then serially spotted 100% DMSO stock solutions into source dose response plates to generate a 4-fold dilution scheme. 100% DMSO was added to the spotted dose response plates to bring the final volume to 5 μl. […] of the dose response stock plate was then spotted into pre-incubation and stimulation assay plates. 50p of pre-incubation buffer and 100 μl of stimulation buffer was then added to the plates resulting in a final assay test concentration range of 30 μM to 0.0001 μM with a final DMSO concentration of 0.3%.
Experimental Methods: Cells expressing TRPC4 were plated onto 384 well, black pdl-coated microplates and maintained in TRPC4 growth media the day prior to use for experiments. TRPC4 expression was induced by the application of 1 μg/ml tetracycline at the time of plating. […] Cells were incubated at room temperature, protected from light, for 60-90 minutes. After the incubation period, the dye was removed and replaced with 10 μl of EBSS. Cell, pre-incubation and stimulation plates were loaded onto the FLIPR-II and the assay was initiated. The FLIPR measured a 10 second baseline and then added 10 μl of 2× compounds (or controls). Changes in fluorescence were monitored for an additional 5 minutes. After a 5 minute pre-incubation, 20 μl of 2× Englerin A (with 1× compound or controls) was added to the cell plate. The final Engerlin A stimulation concentration in the assay is 100 nM. After the Englerin A addition, changes in fluorescence were monitored for an additional 5 minutes.
Test Agent Effect: Test agent modulation of TRPC4 calcium response was determined as follows. After the Englerin A, fluorescence was monitored for a 5 minute period. The maximum relative fluorescence response (minus the control response of […] of the control inhibitor) was captured and exported from the FLIPR. Test agent effect was calculated as % inhibition using the following formula: % inhibition=((RFU TEST AGENT−Plate Average RFU REF INHIB)/(Plate Average RFU CONTROL−Plate Average RFU REF INHIB))×100
The term IC50 denotes the concentration needed to halve the response being measured. `C[C@@H](c1ccc(F)cc1C(F)F)n1nnc2c1CCN(c1cn[nH]c(=O)c1Cl)C2` [drawing 981]: the IC50 fell in the range of 0.01 to 1000 nM.

As to `COc1cc(F)ccc1CN1CCN(c2cn[nH]c(=O)c2Cl)CC1=O` [drawing 1021], the IC50 fell in the range of 1000 to 5000 nM.

For the molecule `O=C1CN(c2cn[nH]c(=O)c2Cl)CCN1Cc1ccc(F)cc1F` [drawing 1014], the IC50 fell in the range of 1000 to 5000 nM.

Consider `C[C@@H](c1ccccc1C(F)(F)F)N1CCN(c2cn[nH]c(=O)c2Cl)CC1=O` [drawing 987], for which the IC50 was 0.01 to 1000 nM.

Another assay concerns the target T2, TRPC5 (Homo sapiens, UniProt Q9UL62).
T2 construct: expressed in transfected cells; host or cells: HEK 293
T2 sequence (Q9UL62 1-973): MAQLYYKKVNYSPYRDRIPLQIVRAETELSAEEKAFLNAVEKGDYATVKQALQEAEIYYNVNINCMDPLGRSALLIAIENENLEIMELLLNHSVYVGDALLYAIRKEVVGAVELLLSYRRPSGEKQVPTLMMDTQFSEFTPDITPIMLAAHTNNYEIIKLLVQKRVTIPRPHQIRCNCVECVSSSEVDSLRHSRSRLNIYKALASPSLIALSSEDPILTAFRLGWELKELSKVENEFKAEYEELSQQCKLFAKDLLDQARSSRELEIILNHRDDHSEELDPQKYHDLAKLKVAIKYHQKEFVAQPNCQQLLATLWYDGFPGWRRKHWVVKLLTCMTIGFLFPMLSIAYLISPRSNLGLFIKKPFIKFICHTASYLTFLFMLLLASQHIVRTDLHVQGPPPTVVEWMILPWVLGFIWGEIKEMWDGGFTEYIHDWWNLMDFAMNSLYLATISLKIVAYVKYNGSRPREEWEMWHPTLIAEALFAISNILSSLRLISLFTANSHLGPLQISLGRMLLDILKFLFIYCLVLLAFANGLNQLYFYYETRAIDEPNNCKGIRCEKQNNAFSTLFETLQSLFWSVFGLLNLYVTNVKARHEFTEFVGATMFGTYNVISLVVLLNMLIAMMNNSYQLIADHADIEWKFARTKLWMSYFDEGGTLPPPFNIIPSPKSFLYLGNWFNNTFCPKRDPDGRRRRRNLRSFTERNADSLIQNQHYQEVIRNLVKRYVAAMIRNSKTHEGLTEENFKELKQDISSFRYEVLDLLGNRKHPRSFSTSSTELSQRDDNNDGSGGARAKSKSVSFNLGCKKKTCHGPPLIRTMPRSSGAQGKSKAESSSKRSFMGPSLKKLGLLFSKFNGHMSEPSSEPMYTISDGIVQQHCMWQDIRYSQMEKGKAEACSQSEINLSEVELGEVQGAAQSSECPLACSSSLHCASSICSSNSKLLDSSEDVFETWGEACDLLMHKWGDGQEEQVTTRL
Briefly: TRPC5 Fluorescence Assay - FLIPR format (HEK-TREx hTRPC5, Riluzole stimulation). Format: cell-based. Particulars: Table 7, read-out: TRPC5-FLIPR IC50. On the procedure:
• Cell line: ICLN-001633 • Base Cell: HEK • Channel: TRPC5 • Species: Human • Thaw ID: multiple • Passage: multiple
FLIPR Assay Buffer (Earls Balanced Salt Solution (EBSS) was prepared as follows:
as §1, with “Test Agent Preparation: Compounds were made up to, or supplied as, a 10 mM stock solution generally using DMSO as the vehicle. 10-point” for “10-point”, “50 μl” for “50p”
Experimental Methods: Cells expressing TRPC5 (HEK-TREx hTRPC5) are plated onto 384 well, black PDL-coated microplates and maintained in TRPC5 growth media the day prior to use for experiments. TRPC5 expression is induced by the application of […] tetracycline at the time of plating. Media is removed from the plates and 10 μl of 4 μM of Fluo-4 AM (mixed with equal volume of Pluronic F-127) in EBSS is added to the cells. Cells are incubated at room temperature, protected from light, for 60-90 minutes. After the incubation period, the dye is removed and replaced with 10 μl of EBSS. Cell, pre-incubation and stimulation plates are loaded onto the FLIPR-II and the assay is initiated. The FLIPR measures a 10 second baseline and then adds 10 μl of 2× compounds (or controls). Changes in fluorescence are monitored for an additional 5 minutes. After the 5 minute pre-incubation, 20 μl of 2× Riluzole (with 1× compound or controls) is added to the cell plate. The final Riluzole stimulation concentration in the assay is 30 μM. After the Riluzole addition, changes in fluorescence are monitored for an additional 5 minutes.
Test Agent Effect: Test agent modulation of TRPC5 calcium response was determined as follows. After the Riluzole, fluorescence was monitored for a 5 minute period. The maximum relative fluorescene response (minus the control response of 1 μM of the control inhibitor) was captured and exported from the FLIPR. Test agent effect was calculated as % inhibition using the following formula: % inhibition=((RFU Test Agent−Plate Average RFU REF INHIB)/(Plate Average RFU Control−Plate Average RFU REF INHIB))×100
As to `CN(C)C(=O)c1nn(Cc2ccccc2C(F)F)c2c1CN(c1cn[nH]c(=O)c1Cl)CC2`, the IC50 lay in the range of 0.01 to 1000 nM.

Turning to `CCc1ncccc1[C@H](C)n1nnc2c1CCN(c1cn[nH]c(=O)c1Cl)C2` [drawing 928], the IC50 was in the range of 0.01 to 1000 nM.

As for `COCc1ncccc1CN1CCN(c2cn[nH]c(=O)c2Cl)CC1` [drawing 926], the IC50 was 0.01 to 1000 nM.

Regarding `CCCCn1c(Oc2cccc(F)c2)nc2c1CCN(c1cn[nH]c(=O)c1Cl)C2`, the IC50 lay in the range of 1000 to 5000 nM.

The same assay, now with this note: Table 9, read-out: hTRPCS-FLIPR IC50.
In the case of `CCc1ncccc1[C@@H](CC)N1CCN(c2cn[nH]c(=O)c2C#N)CC1`, the IC50 was in the range of 0.01 to 1000 nM.

Consider `C[C@@H](O)c1ncccc1CN1CCN(c2cn[nH]c(=O)c2Cl)CC1`, for which the IC50 lay within 1000 to 5000 nM.

As for `Cc1ccccc1CC1(OC(N)=O)CCN(c2cn[nH]c(=O)c2Cl)CC1`, the IC50 lay within 1000 to 5000 nM.

In the case of `C[C@H](O)c1ncccc1CN1CCN(c2cn[nH]c(=O)c2Cl)CC1`, the IC50 fell in the range of 0.01 to 1000 nM.

In the case of `NC(=O)C1(Cc2ccccc2C(F)(F)F)CCN(c2cn[nH]c(=O)c2Cl)CC1`, the IC50 lay within 1000 to 5000 nM.

For the molecule `CCc1ncccc1[C@@H](C)N1CCN(c2cn[nH]c(=O)c2Cl)CC1`, the IC50 lay within 0.01 to 1000 nM.

Still in this assay, the particulars now being: Table 10, read-out: TRPCS-FLIPR IC50.
Consider `Nc1nn(Cc2ccccc2C(F)(F)F)c2c1CN(c1cn[nH]c(=O)c1Cl)CC2`, for which the IC50 is 1000 to 5000 nM.

For `C[C@H](c1ccc(F)cc1C(F)F)n1nnc2c1CCN(c1cn[nH]c(=O)c1Cl)C2`, the IC50 was 0.01 to 1000 nM.

Turning to `CN1CCN(Cc2nn(Cc3ccccc3C(F)F)c3c2CN(c2cn[nH]c(=O)c2Cl)CC3)C(=O)C1` [drawing 1111], the IC50 is 0.01 to 1000 nM.

For the molecule `C[C@H](c1ccc(Cl)cc1C(F)(F)F)n1nnc2c1CCN(c1cn[nH]c(=O)c1Cl)C2`, the IC50 was in the range of 0.01 to 1000 nM.

As for `COc1nn(Cc2ccccc2C(F)(F)F)c2c1CN(c1cn[nH]c(=O)c1Cl)CC2`, the IC50 is 0.01 to 1000 nM.

Regarding `C[C@H]1CCC[C@H]1Cn1nnc2c1CCN(c1cn[nH]c(=O)c1Cl)C2`, the IC50 was 0.01 to 1000 nM.

Consider `N[C@@H](c1cc(F)ccc1Cn1nnc2c1CCN(c1cn[nH]c(=O)c1Cl)C2)C(F)(F)F`, for which the IC50 was in the range of 1000 to 5000 nM.

For the molecule `C[C@@H](c1cc(F)ccc1C(F)(F)F)n1nnc2c1CCN(c1cn[nH]c(=O)c1Cl)C2`, the 50% inhibitory concentration (IC50) lay in the range of 0.01 to 1000 nM.

Take `CC(=O)Nc1nn(Cc2ccccc2C(F)(F)F)c2c1CN(c1cn[nH]c(=O)c1Cl)CC2`: the IC50 is 0.01 to 1000 nM.

In the case of `O=c1[nH]ncc(C2CCc3c(nnn3Cc3ccccc3C(F)(F)F)C2)c1Cl` (centres unmarked), the IC50 was 10000 to 500000 nM.

Consider `NC[C@H](c1ccc(F)cc1C(F)(F)F)n1cnc2c1CCN(c1cn[nH]c(=O)c1Cl)C2`, for which the IC50 lay in the range of 5000 to 10000 nM.

Take `O=c1[nH]ncc(N2CCc3c(ncn3Cc3cccnc3CC(F)F)C2)c1Cl` [drawing 1058]: the 50% inhibitory concentration (IC50) fell in the range of 0.01 to 1000 nM.

On to `O=c1[nH]ncc(N2CCc3c(cnn3Cc3cccnc3[C@@H](O)C(F)(F)F)C2)c1Cl`, for which the IC50 lay within 0.01 to 1000 nM.

For the molecule `C[C@H](c1cc(F)ccc1C(F)(F)F)n1nnc2c1CCN(c1cn[nH]c(=O)c1Cl)C2`, the IC50 is 0.01 to 1000 nM.

Take `C[C@H](c1ccc(F)cc1CN1CCOCC1)n1nnc2c1CCN(c1cn[nH]c(=O)c1Cl)C2`: the IC50 is 1000 to 5000 nM.
